These results are taken from US10525144B2, “Selective targeting of an anti-inflammatory receptor in human mitochondria and preservation of mitochondrial functions” (THE JOHNS HOPKINS UNIVERSITY, priority 2014, dated 2020).

Ends that are not written are not given here. * marks the point of attachment. 5FAM = O=C1OC2(c3ccc(O)cc3Oc3cc(O)ccc32)c2ccc(C(=O)*)cc21

For one data set, the system named is mitochondrial function. In words: Effect of Losartan on mitochondrial function. The source says: (§1) The inventors recently discovered functional mitochondrial Angiotensin receptors (mtAT1R and mtAT2R) that shift to an increased mtAT1R/mtAT2R ratio with aging. One of the protective benefits of Angiotensin (Ang) receptor type 1 (AT1R) blockers, such as Losartan (LOS), arises from its systemic effects on blood pressure and remodelling. […] Therefore, angiotensin receptor blockers such as Losartan have utility beyond hypertension treatment; angiotensin receptor blockers can be used in the treatment of conditions relevant to older adults.

Another data set concerns skeletal muscle. Description: Skeletal muscle healing and disuse atrophy in older mice. The format is in vivo. Particulars: high doses.
Excerpt: as §1

In the next data set the test system is mitochondria. Description: Confocal fluorescence microscopy of cellular localization of the conjugate in rat cells (FIG. 3). The format is cell-based. How it is done:
FIG. 3 contains confocal fluorescence microscopy images of rat liver cells incubated with MTS1-Ls-5-FAM for 24 hrs.
The MTS1-Ls-5-FAM conjugate was transfected into rat cells and incubated for 24 hours before confocal fluorescence microscopy was performed to ascertain cellular localization. Cells were co-stained with Mitotracker-Red and Hoescht 33342 for the mitochondria and nuclei, respectively.

In data set [1] the test system is mitochondria of cardiac cells. In words: Co-localization with mitochondria of cardiac cells (FIG. 7). The format is cell-based.
Data set [2] relates to mitochondrial membrane potential. In words: Quantification of mitochondrial membrane potential based on TMRE localization in cardiac cells (FIG. 8). Particulars: treated vs control, FIG. 8 panels E and F. It is filed as cell-based. The source says:
FIG. 8 consists of panels A-J. Panels A and B are images showing quantification of mitochondrial membrane potential based on TMRE localization in control (panel A) and MTS1-Ls-5-FAM-treated (panel B) cardiac cells. TMRE localizes in the mitochondria, and based on the intensity of the TMRE dye, the mitochondrial membrane potential can be calculated (panel C).

As to `CCCCc1nc(Cl)c(CO)n1Cc1ccc(-c2ccccc2-c2nn[nH]n2)cc1` [LOS, Losartan], the mitochondrial function result in the data set on mitochondrial function is reported as “improved”. Moreover, in the data set with skeletal muscle, the disuse atrophy entry is “prevent disuse atrophy” and the skeletal muscle healing entry is listed as “accelerate skeletal muscle healing”.

With “MTS1-Ls-5-FAM (MLRAALSTARRGPRLSRLLCK(5FAM); not fully specified (C-terminus); printed as MLRAALSTARRGPRLSRLLCK(Mtt); also: losartan conjugated, site not given here)”, in the data set with mitochondria (rat cells, incubated 24 hours, co-stained with Mitotracker-Red and Hoescht 33342), the “localization of the conjugate with the mitochondria” value is “greater than 80%”. In the data set on mitochondria (rat liver cells incubated 24 hrs, FIG. 3 panel (d)), the “localization in merged confocal image” value was “localization of MTS1-Ls-5-FAM within the mitochondria”. The “co-localization with mitochondria (images)” value in data set [1] (FIG. 7 panels A and B) was “positive co-localization”. Further, in data set [1] (relative to the scrambled MTS1-Ls-5-FAM, FIG. 7 panel C), the “co-localization with mitochondria by Pearson coefficient” value was “significantly more co-localized”. Moreover, the “co-localization with mitochondria by Mander's coefficient” value in data set [1] (relative to the scrambled MTS1-Ls-5-FAM, FIG. 7 panel D) was “significantly more co-localized”. The “maximum TMRE intensity per pixel” value in data set [2] is reported as “no significant difference”.
